2 compounds from ChEMBL document CHEMBL1155022, “Aerucyclamides A and B: isolation and synthesis of toxic ribosomal heterocyclic peptides from the cyanobacterium Microcystis aeruginosa PCC 7806” (J Nat Prod, 2008) can be followed below.

A short description of the series: Acute grazer toxicity against Thamnocephalus platyurus after 24 hrs. In kind it is organism-based. The conditions noted are these: in vivo.

Compound `CC[C@H](C)[C@@H]1NC(=O)[C@H]2CSC(=N2)[C@@H]([C@@H](C)CC)NC(=O)c2csc(n2)CNC(=O)[C@H]2N=C1O[C@@H]2C` [AERUCYCLAMIDE A] yielded an LC50 at 24 h of 30.5 µM.

The compound `CC[C@H](C)[C@@H]1NC(=O)c2csc(n2)[C@@H]([C@@H](C)CC)NC(=O)c2csc(n2)CNC(=O)[C@H]2N=C1O[C@@H]2C` [AERUCYCLAMIDE B] displayed an LC50 at 24 h of 33.8 µM.
